Measurements published in patent US20220348590A1, “CYCLOOXYGENASE-2 INHIBITORS AND USES THEREOF” (The Board Institute, Inc., priority 2019, published 2022).
Entries after “also recorded” stand apart in the source; their conditions may differ.

Experiments:
[1] = biological target: T1, COX2 (Rattus norvegicus, UniProt P35355); experiment: rat in-vivo PET imaging (brain pharmacokinetics, self-block)
T1 construct: in-vitro autoradiography in rat brain slices; from tissue; host or cells: rat brain slices
T1 sequence (P35355 18-604): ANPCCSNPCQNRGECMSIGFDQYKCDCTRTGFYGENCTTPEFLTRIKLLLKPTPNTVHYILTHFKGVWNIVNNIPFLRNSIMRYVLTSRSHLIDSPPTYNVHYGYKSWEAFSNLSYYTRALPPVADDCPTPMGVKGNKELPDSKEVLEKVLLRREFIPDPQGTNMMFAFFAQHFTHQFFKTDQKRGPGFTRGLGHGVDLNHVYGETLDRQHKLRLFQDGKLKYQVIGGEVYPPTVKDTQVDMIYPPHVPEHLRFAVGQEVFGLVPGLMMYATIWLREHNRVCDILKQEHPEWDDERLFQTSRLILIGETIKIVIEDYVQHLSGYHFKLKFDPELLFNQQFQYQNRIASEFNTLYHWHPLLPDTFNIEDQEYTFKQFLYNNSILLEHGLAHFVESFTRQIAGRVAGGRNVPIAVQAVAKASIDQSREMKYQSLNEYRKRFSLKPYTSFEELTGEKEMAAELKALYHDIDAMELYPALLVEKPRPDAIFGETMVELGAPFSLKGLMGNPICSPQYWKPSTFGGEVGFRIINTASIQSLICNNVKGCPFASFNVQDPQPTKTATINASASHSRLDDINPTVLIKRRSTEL

[2] = PET imaging in non-human primate (baboon); format: in vivo
Text: This ideal pharmacokinetic profile in non-human primate positions these two optimized lead radiotracers for further evaluation using kinetic modeling with an arterial plasma input function and correction for plasma fraction unbound to obtain total volume of distribution (VT), the gold standard measure for PET quantification.

[3] = biological target: T1, COX2; experiment: in-vitro autoradiography in rat brain slices (self-block); format: binding; details: rat brain slices in vitro autoradiography, self-block, compared to earlier tracers
Text: Three ligands have been evaluated with in-vitro autoradiography in rat brain slices. Radiolabeling was accomplished via methylation of either a sulfinate precursor ([^11C]Rofecoxib), hydroxyl precursor ([^11C]MC1) or thiol precursor ([^11C]98) using [^11C]-methyl iodide and offers chemical flexibility for radiolabeling of future candidates. […] This translated into a ˜2-fold increase in COX2 specific binding in a rat brain slice in-vitro autoradiography. […] These properties enable us to better understand the contribution of potency and free fraction to the ligand's specific binding.
Three newly synthesized COX2 ligands were successfully radiolabeled using this strategy and first evaluated by in-vitro autoradiography in rat brain slices using self-block experiments (FIG. 5). […] [^11C]36 was also evaluated for specific binding using self-block experiments in human post-mortem brain tissues (globus pallidus) from three Huntington's disease (HD) patients (FIG. 6). COX2 protein levels were quantified using immunostaining and defined as high, medium and low, respectively.

CS(=O)(=O)c1ccc(-c2cccc(NCc3ccoc3)n2)cc1 [[^11C]47]
specific binding in vivo ([1]; rat PET, self-block experiment, between 30-60 minutes): modest but consistent specific binding
brain pharmacokinetic (brain uptake and clearance) ([1]; rat in-vivo PET imaging): high and rapid brain uptake followed by fast clearance
brain uptake and clearance [2]: high, fast and homogeneous brain uptake along with fast clearance; also recorded: high, rapid and homogeneous brain uptake followed by fast clearance
specific binding [3]: significantly increased specific binding
